Data as given in ChEMBL document CHEMBL5620383, “Advances in CD73 inhibitors for immunotherapy: Antibodies, synthetic small molecule compounds, and natural compounds” (Eur J Med Chem, 2023).
pEC50, pIC50, pKi: −log10 of the molar value.

What was measured:
[1] = molecular target: T1, 5'-nucleotidase (Homo sapiens, UniProt P21589); assay: Binding affinity to CD73 (unknown origin) assessed as inhibition constant
[2] = molecular target: T1, 5'-nucleotidase; assay: Inhibition of CD73 (unknown origin)
[3] = molecular target: T1, 5'-nucleotidase; assay: Inhibition of CD73 (unknown origin) at 20 uM relative to control
[4] = molecular target: T1, 5'-nucleotidase; assay: Binding affinity to human recombinant CD73 expressed in Sf9 cells assessed as inhibition constant by malachite green based spectrophotometer assay
[5] = molecular target: T1, 5'-nucleotidase; assay: Inhibition of human CD73 expressed in A-375 cells incubated for 15 mins by malachite green based spectrophotometer assay; format: cell-based
[6] = molecular target: T1, 5'-nucleotidase; assay: Binding affinity to human recombinant CD73 assessed as inhibition constant
[7] = molecular target: T1, 5'-nucleotidase; assay: Inhibition of C-terminal 6His-tagged human recombinant CD73 expressed in CHO cells incubated for 1 hr by malachite green based spectrophotometer assay; format: cell-based
[8] = test system: MDA-MB-231; assay: Inhibition of cell migration in human MDA-MB-231 cells at 10 uM incubated for 48 hrs by Transwell assay; format: functional; parameters: scale not given: the % may be the effect or the level left
[9] = test system: 4T1; assay: Inhibition of cell migration in mouse 4T1 cells at 10 uM incubated for 48 hrs by Transwell assay; format: functional; parameters: scale not given: the % may be the effect or the level left
[10] = organism: Homo sapiens; assay: Inhibition of adenosine transporter (unknown origin) at 20 uM relative to control
[11] = Reversal of adenosine induced reduction in IFNgamma production in human PBMC cells; format: functional, cell-based
[12] = molecular target: T1, 5'-nucleotidase; assay: Inhibition of human recombinant CD73 (27 to 549 residues) expressed in Sf9 cells
[13] = test system: MDA-MB-231; assay: Cytotoxicity against human MDA-MB-231 cells assessed as reduction in cell growth at 20 uM incubated for 48 hrs by CCK-8 assay relative to control; format: functional; parameters: scale not given: the % may be the effect or the level left

T1 sequence (P21589 whole entry): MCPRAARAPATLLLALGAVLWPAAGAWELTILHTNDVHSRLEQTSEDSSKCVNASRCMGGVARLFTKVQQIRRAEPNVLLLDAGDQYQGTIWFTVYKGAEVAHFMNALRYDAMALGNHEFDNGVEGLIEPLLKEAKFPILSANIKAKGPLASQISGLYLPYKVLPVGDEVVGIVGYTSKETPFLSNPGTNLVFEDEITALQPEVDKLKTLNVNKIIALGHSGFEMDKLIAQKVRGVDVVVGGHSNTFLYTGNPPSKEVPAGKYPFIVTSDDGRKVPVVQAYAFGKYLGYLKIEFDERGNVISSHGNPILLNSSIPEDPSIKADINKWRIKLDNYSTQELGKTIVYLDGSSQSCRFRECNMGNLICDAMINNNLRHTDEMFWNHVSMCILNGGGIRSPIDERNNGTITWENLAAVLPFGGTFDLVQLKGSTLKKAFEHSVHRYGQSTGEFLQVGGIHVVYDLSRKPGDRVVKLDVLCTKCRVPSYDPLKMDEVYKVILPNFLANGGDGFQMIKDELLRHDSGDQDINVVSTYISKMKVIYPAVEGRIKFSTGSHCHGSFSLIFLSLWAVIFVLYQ

Work on `C=C(C)[C@@H]1CC[C@]2(C(=O)O)CC[C@]3(C)[C@H](CC[C@@H]4[C@@]5(C)CC[C@H](O)C(C)(C)[C@@H]5CC[C@]43C)[C@@H]12` [BETULINIC ACID] yielded a pKi [1] of 5.11.
With `C=C(C)[C@@H]1CC[C@]2(C(=O)O)CC[C@]3(C)[C@H](CC[C@@H]4[C@@]5(C)CC[C@H](OC(=O)c6ccc(F)cc6)C(C)(C)[C@@H]5CC[C@]43C)[C@@H]12` the pIC50 [2] was 6.25.
For `C=C[C@]1(C)C[C@@H](OC(=O)CO)[C@]2(C)[C@H](C)CC[C@]3(CCC(=O)[C@H]32)[C@@H](C)[C@@H]1O`, the inhibition [3] was 70%.
For `Cn1c(=O)n([C@@H]2O[C@H](COP(=O)(O)OP(=O)(O)O)[C@@H](O)[C@H]2O)cc/c1=N/Oc1ccccc1`, the pKi [4] was 8.00.
For `Nc1ncnc2c1ncn2[C@@H]1O[C@H](COP(=O)(O)OP(=O)(O)O)[C@@H](O)[C@H]1O` [ADENOSINE DIPHOSPHATE], the pIC50 [5] was 8.42 and the pKi [6] was 7.05.
With `COC[C@](CO)(OC[C@H]1O[C@@H](n2ncc3c(NC4CCCC4)nc(Cl)nc32)[C@H](O)[C@@H]1O)P(=O)(O)O` the pIC50 [7] was 6.60.
For `C=C(C)[C@@H]1CC[C@]2(C(=O)O)CC[C@]3(C)[C@H](CC[C@@H]4[C@@]5(C)CC[C@H](OC(=O)c6c(F)c(F)c(F)c(F)c6F)C(C)(C)[C@@H]5CC[C@]43C)[C@@H]12`, the pIC50 [2] was 6.33.
For `CN(Cc1ccccc1F)c1nc(Cl)nc2c1ncn2[C@@H]1O[C@H](COP(=O)(O)OP(=O)(O)O)[C@@H](O)[C@H]1O`, the pKi [6] was 9.50.
In the case of `C=C[C@]1(C)C[C@@H](OC(=O)CSCCN(CC)CC)[C@]2(C)[C@H](C)CC[C@]3(CCC(=O)[C@H]32)[C@@H](C)[C@@H]1O` [TIAMULIN], the Activity [8] was 76.2%, the Activity [9] was 67.01% and the inhibition [10] was 85.7%.
Compound `O=P(O)(O)COC[C@H]1O[C@@H](n2ncc3c(N4CC5(CCc6ccccc65)C4)nc(Cl)nc32)[C@H](O)[C@@H]1O` has a pEC50 [11] of 6.96 and a pIC50 [7] of 7.30.
With `Nc1ncnc2c1ncn2COCCOP(=O)(O)CP(=O)(O)O` the pKi [4] was 4.90.
With `O=P(O)(O)CP(=O)(O)CC(O)[C@H]1O[C@@H](n2ccnn2)[C@H](O)[C@@H]1O` (stereo not given in full) the pIC50 [12] was 6.07 and the pIC50 [7] was 6.07.
With `CCN(CC)c1nc(Cl)nc2c1ncn2[C@@H]1O[C@H](COCP(=O)(O)OP(=O)(O)C(Br)(Br)P(=O)(O)O)[C@@H](O)[C@H]1O` the pKi [4] was 6.35.
Work on `C=C(C)[C@@H]1CC[C@]2(C(=O)O)CC[C@]3(C)[C@H](CC[C@@H]4[C@@]5(C)CC[C@H](OC(=O)c6ccc(F)c(F)c6)C(C)(C)[C@@H]5CC[C@]43C)[C@@H]12` yielded an Activity [13] of 87.59% and a pIC50 [2] of 6.13.
